Legend:
[1] = system: human papilloma virus-like particles (VLP's); conditions: Joyce et al. 1999; cited from earlier work
BPV-1 [2] = assay: BPV-1 focus-forming assay, cells pre-incubated with compound and washed before virus (Table D); type: cell-based, bovine papilloma virus; conditions: for Average ± standard deviation (foci/well): C127-D10 cells, washed before virus
Protocol: Microbicidal activity of compounds was also tested by pre-incubation of cells with compounds followed by addition of virus to compound-coated C127 cells. In these experiments, dilutions of compounds were added to cultures of C127 cells, incubated for 1 hr at 37° C., washed 3 times with media to remove unbound compound, prior to addition of approximately 100 focus-forming units of BPV-1. The cultures were incubated for an additional hour, washed three times to remove unbound virus, then the incubation was continued for two weeks with media changes every 3-4 days and foci counted as described above.
Pre-incubation of C127-D10 cells with compounds prior to addition of BPV-1 was tested to determine whether the microbicidal effects of CS and DS extended to a blockage of virus interaction with cell surfaces. In these experiments, titrations of compounds were added to cell cultures followed by washing away unbound reagent prior to addition of virus. After a one-hour incubation with virus, unbound virus was removed by washing and the cultures monitored for foci after two weeks.

BPV-1 [3] = assay: BPV-1 focus-forming assay, virus preincubated with compound (Table C); type: cell-based, bovine papilloma virus; conditions: C127 cell line
Protocol: In a similar study using the BPV-1 focus forming assay, the effect of the cellulose sulfate and dextran sulfate on BPV was tested. In this study, cellulose sulfate tested was as described above. Dextran sulfate used was from Dextran Products Limited (Lot DSM-122) prepared using dextan of average Mr of about 500,000 (based on viscosity) and is estimated to have a final average Mr greater than about 500,000 and may be about 1 to 1.1 million.
Microbicidal activity of the compounds was tested using the well-characterized BPV-1 focus-forming assay (Dvoretzky, I., R. Shober, S. K. Chattopadhyay, and D. R. Lowy. 1980. A quantitative in vitro focus assay for bovine papilloma virus. Virology 103:369-375), with modifications for microbicide testing (Hermonat, P. L., (1992) supra; Howett, M. K., et al. (1999) supra. The terms inhibiting or microbicidal activity when used are intended to refer broadly to microbe infection and/or microbe inactivating effect.
Aliquots of BPV-1 containing approximately 100-200 focus-forming units were preincubated with dilutions of compounds for 10 min at 37° C. prior to addition to cultures of mouse C127 cells. Cultures of C127 cells were set up in T25 tissue culture flasks (Corning, N.Y.), containing 3×10^5 cells per flask. Virus-compound mixtures in a total of 50 μl were then added to flasks in 1 ml of media, and an additional 3 ml of media added after 24 hrs culture. Media was changed every 3-4 days for a period of 2 weeks. Foci were enumerated following staining of the monolayer with crystal violet and counting stained foci microscopically. Each concentration of compound was tested in duplicate, and the mean±SD of foci number for the preincubation virus-drug concentration for each compound is shown below as Table C.
Clones were derived from the parental C127 cell line because of the consistent failure of BPV-1 to induce foci following several cell passages of the uncloned parental cell line. One clone, labeled C127-D10, which produced foci upon BPV-1 infection, was chosen for a repeat testing of the compounds. When this clone was tested for microbicidal activity, less compound was required to achieve high reduction in BPV-1-induced foci when compared to the uncloned parental-C127 cells.

HPV-11 = assay: RT-PCR ELISA for transient infection of human A431 cells, HPV-11; type: cell-based, human papilloma virus; conditions: with virus (HPV-11)
Protocol: (§1) Cellulose sulfate and dextran sulfate were each prepared as a 2 mg/ml solution in 0.9% NaCl and tested for microbicidal activity using the in vitro HPV transient infection assay originally described by Smith and colleagues (Smith, L. H., C. Foster, M. E. Hitchcock, and R. Isseroff. 1993. In vitro HPV-11 infection of human foreskin. J. Invest. Dermatol. 101:292-295) with some modifications (Ludmerer, S. W., W. L. McClements, X. M. Wang, J. C. Ling, K. U. Jansen, and N. D. Christensen. 2000. HPV11 mutant virus-like parties elicit immune responses that neutralize virus and delineate a novel neutralizing domain. Virology 266:237-245). An ELISA-based read-out of Optical Density (OD) values using alkaline phosphatase cleavage of the substrate p-nitrophenyl phosphate was also used to measure HPV infection as described below.
(§2) A modification of the RT-PCR assay that incorporates an ELISA-based read-out (Boehringer-Mannheim) was also included to assess microbicidal activity. Replicate cell cultures of A431 cells were infected with an aliquot of infectious HPV virions as described above. After 4 days of culture, cells were harvested and RNA extracted. RNA was subjected to RT using downstream anti-sense (reverse) primers for HPV-11 or HPV-40 and β-actin (as a control/housekeeping cellular transcript) to initiate cDNA synthesis. The cDNA was processed through 2 sets of 30 cycles of PCR amplification using nested primers: the second set of cycles used digoxygenin (DIG)-dUTP to label the PCR products with DIG. DIG-labeled PCR products were denatured then renatured together with a biotinylated oligonucleotide specific for the targeted PCR product. Biotinylated products were detected in ELISA with plates coated with streptavidin (to capture the biotinylated target PCR product) then anti-DIG antibody and substrate. Labeled PCR products were added directly to ELISA plates, or titrated at 10-fold dilutions in duplicate for each cell culture for each virus dilution.

HPV-40 = assay: RT-PCR ELISA for transient infection of human A431 cells, HPV-40; type: cell-based, human papilloma virus; conditions: with virus (HPV-40)
Protocol: as §1
The RT-PCR assay to detect HPV-40 infection was designed similarly for the detection of HPV-11 infection as described above.
as §2
The microbicidal activity was assessed either as the detection of ethidium stained PCR products or as an ELISA-based read-out as described above. […] An initial experiment was conducted to test the specificity of the ELISA-based RT-PCR assay using HPV-11 and HPV-40 infection of A431 cells (Table E).

papillomaviruses = conditions: literature; cited from earlier work
[4] = 100 μg/ml at viral pretreatment

Row | Substance | binding of VLP's to HaCaT cells [1] | Average ± standard deviation (foci/well) (BPV-1 [2]; 10 μg/ml) | reduction of BPV-1-induced foci (BPV-1 [2]; 10 μg/ml, cells pre-treated, washed) | Average ± standard deviation (foci/well) (BPV-1 [2]; 100 μg/ml) | Average ± standard deviation (foci/well) (BPV-1 [2]; 1,000 μg/ml) | Average ± standard deviation (foci/well) (BPV-1 [2]; 10,000 μg/ml) | inhibition of papilloma virus infectivity (BPV-1 [3]; 100 μg/ml) | inhibition of papilloma virus infectivity (BPV-1 [3]; 1 mg/ml) | Mean (SD) of O.D. reading for RT-PCR ELISA, HPV-11 probe (HPV-11; 10 μg/ml at viral pretreatment) | Mean (SD) of O.D. reading for RT-PCR ELISA, HPV-11 probe (HPV-11; [4]) | Mean (SD) of O.D. reading for RT-PCR ELISA, HPV-40 probe (HPV-40; 10 μg/ml at viral pretreatment) | Mean (SD) of O.D. reading for RT-PCR ELISA, HPV-40 probe (HPV-40; [4]) | Mean (SD) of O.D. reading for RT-PCR ELISA, HPV-40 probe (HPV-40; 1000 μg/ml at viral pretreatment) | microbicidal activity against papillomaviruses (papillomaviruses)
1 | Dextran sulfate | inhibited | 31 ± 16.9 | substantial reduction in foci | 15 ± 4.6 | 4 ± 2.6 | 0 | moderate inhibition | very high inhibition | 0.023 (0.000) O.D. | 0.035 (0.000) O.D. | 0.042 (0.007) O.D. | 0.375 (0.073) O.D. | 0.006 (0.007) O.D. | 
2 | heparin [reference compound] | inhibited |  |  |  |  |  |  |  |  |  |  |  |  | 
3 | nonoxynol-9 |  |  |  |  |  |  |  |  |  |  |  |  |  | ineffective

Source: patent US7235536B2, “Cellulose sulfate and other sulfated polysaccharides to prevent and treat papilloma virus infection and other infections” (Rush Presbyterian-St. Luke's Medical Center, priority 2000, dated 2007)
